Assay results from patent US12728139B2, “Methods of preparing purified atomic quantum clusters” (NANOGAP SUB-NM-POWDER, S.A., priority 2018, dated 2026).

Key:
A549 proliferating cells = assay: STORM super-resolution imaging of chromatin organization; type: cell-based, human; settings: Ag3-AQCs 55.61 ng/mL or AgNO3 5 μM, 30 min
Experimental: 1.5×10^4 A549 cells were plated on 8-well Lab-tek cover glass chamber (Nunc) and 24 hours later cells were synchronized in S phase by adding 0.8 mM hydroxyurea (H-8627, Sigma) to the culture medium. […] The medium was removed and replaced with complete medium containing EdU (20 μM) for 2 hours. Cells were then fixed and permeabilized with Methanol-Acetone (1:1) solution at 20° C. for 10 minutes and blocked (3% BSA+0.01% Triton X-100) for 1 hour at RT. Finally, cells were washed three times with PBS and stained with Alexa Fluor 647 following the instructions provided by the manufacturer (Click-iT® EdU Alexa Fluor®488 Imaging Kit, Thermo Fisher Scientific).
The chromatin was imaged using a commercial microscope system from Nikon Instruments (NSTORM). […]
STORM images were analysed and rendered as previously described in Bates et al. 2007. […]
Since the labelling density of the EdU was very high, all of the images were roughly normalized to the same number of localizations per μm^2 of the nucleus, by varying the number of frames used in the final reconstructed image. The percentage of non-zero pixels of the reconstructed images was then calculated in ImageJ, and the percentage of nuclear area covered by EdU also calculated. The density of chromatin per μm^2 was extracted by dividing the number of localizations (same for each recorded nucleus) over the chromatin-covered area.

A549 Luc-C8 cells = assay: Luminescent cell viability assay; type: cell-based, human; settings: 24 hours
Experimental: Data represent mean±SD of 2 independent experiments with 3 replicas per experiment. Mann Whitney test ((*) p<0.01).
After that, treatments were removed and 20 μL of lysis buffer (Promega) added to wells and incubated for 30 minutes, shacking. Lysates were then transferred to 1.5 mL tubes and centrifuged for 15 minutes at high speed.

[1] = tested on: A549 orthotopic lung cancer; assay: Orthotopic lung cancer model; settings: CDDP 4 mg/kg intravenously, up to 37 days
Experimental: (a) Tumour growth measured in vivo by luminescence (IVIS® Spectrum).
A suspension of 1×10^6 non-small cell lung carcinoma luciferase expressing cells (A549 Luc-C8 Bioware® cell line) in PBS (50 μL) was injected through the intercostal space into the left lung of athymic nude mice. During this procedure, mice were anaesthetized using 4% isoflurane inhalation. To follow tumour growth, luciferin was injected into the intraperitoneal cavity at a dose of 150 mg/kg body weight approximately 5 minutes before imaging. Luciferase bioluminescence was imaged under vaporized isofluran anaesthesia using an IVIS® Living Image® System (Caliper Life Sciences, Hopkinton, MA, USA) that allowed monitoring of both the primary tumour growth and cancer cell dissemination in a semi quantitative fashion. After in vivo imaging for several days (up to 37 days), the mice were sacrificed, and protein extracts were obtained from different organs to quantify luciferase activity.

single nucleosomes = target: T1, single nucleosomes (Homo sapiens, UniProt P62805+P68431+Q16778+Q7L7L0); assay: Single-nucleosome destabilization, gel shift assay; type: biochemical; settings: etoposide 60 μM or doxorubicin 20 μM 4 hours; Ag3-AQCs 83 ng/mL 30 minutes
T1 construct: purchased New England Biolabs, Ipswich, USA
Experimental: From each reaction, half of the sample was electrophoresed under non-denaturing conditions, and the gel was stained with ethidium bromide (left, upper panel) and silver (left, lower panel). The remaining portion of the sample was analysed to check that equal amounts of histones were loaded in all cases (right panel). The position of unbound DNA, assembled nucleosomes and histones are indicated. (b) Nucleosomes were incubated with etoposide or doxorubicin as in (a) or the indicated Ag3-AQC dilutions (initial concentration, AQCs 1:10=83 ng/mL). Samples were analysed by native polyacrylamide electrophoresis, and the gel was stained first with ethidium bromide (top) and subsequently with silver (bottom) to visualize histones. This image is representative of two independent experiments.
Single nucleosome preparations were obtained using the Epimark Nucleosome Assembly Kit (New England Biolabs, Ipswich, USA) following the dilution assembly protocol from the manufacturer.
For the gel shift assay, 5% non-denaturing polyacrylamide gels were prepared using TBE buffer. After a 1 hour preliminary run at 100 V, the reactions containing nucleosomes were mixed with DNA loading buffer, and the electrophoresis was performed at 100 V for 2 h. Gels were stained with ethidium bromide to visualize DNA, and the signal was captured using the Gel Doc XR system (Bio-Rad). […]

A549 cells = assay: Quantification of platinum bound to DNA (ICP-MS) in A549 cells; type: cell-based, human; settings: proliferating A549 cells, CDDP 50 μM
Experimental: DNA-bound platinum was assessed as previously described in Comenge et al. PLoS One 2012, 7: e47562. Briefly, 5×10^5 A549, MCF7 or U87-luc cells were seeded in 60 mm diameter plates. […] After the treatment, the cells were washed twice with PBS, trypsinised and centrifuged. The supernatants were removed, and the cell pellets were stored at −20° C. overnight. […] After 24 hours, the animals were sacrificed, and the organs were removed. Small pieces (1-2 mm^3) of tumour (lung) and other organs (heart, liver, kidney, spleen, brain and bone marrow) were separated using a scalpel. From this point, the steps for DNA extraction are common to cells and tissue samples. After freezing overnight, cell or tissue pellets were suspended in 300 μL of lysis buffer (150 mM Tris pH 8; 100 mM EDTA pH 8; 100 mM NaCl; 0.5% SDS) and 10 μL of Proteinase K (20 μg/μL). […] The DNA concentration was determined using a NanoDrop 2000 spectrophotometer (Thermofisher, Spain). […] Finally, the amount of platinum was determined by mass spectrometry using an ICP-MS BRUCKER 820-MS with a low-flow glass Micromist nebulizer and a double-pass spray chamber with a Peltier cooling (3° C.) and quartz torch (Bruker Corp., Billerica, MA, USA).

octamer = settings: 25° C., ITC and fluorescence; cited from earlier work

SMILES | IC5 (A549 Luc-C8 cells) [µM] | IC25 (A549 Luc-C8 cells) [µM] | IC50 (A549 Luc-C8 cells) [µM] | IC75 (A549 Luc-C8 cells) [µM] | other results
O=[N+]([O-])[O-].[Ag+] [AgNO3, Silver nitrate] | – | – | – | – | Chromatin compaction (STORM images) (A549 proliferating cells): did not affect chromatin compaction
N.N.O=C([O-])C1(C(=O)[O-])CCC1.[Pt+2] [CBDCA, Carboplatin] | 0.25 | 0.5 | 1000 | 2000 | –
[NH2][Pt]([NH2])([Cl])[Cl] [CDDP, Cisplatin] | 5 | 10 | 50 | 100 | Tumour growth in vivo (bioluminescence) [1]: significantly reduced the growth of tumours
COc1cccc2c1C(=O)c1c(O)c3c(c(O)c1C2=O)C[C@@](O)(C(=O)CO)C[C@@H]3O[C@H]1C[C@H](N)[C@H](O)[C@H](C)O1 [DOX, Doxorubicin] | – | – | – | – | Dissociation of single nucleosomes (single nucleosomes): dissociated nucleosomes; Increase of amount of CDDP bound to DNA on co-administration with CDDP (A549 cells): did not increase CDDP binding to DNA
CC[N+](C)(CC)CCC[n+]1c(-c2ccccc2)c2cc(N)ccc2c2ccc(N)cc21.[I-].[I-] [IP, Propidium iodide] | – | – | – | – | Formation constant of complex with octamer (octamer): 140000 M⁻¹
O=C1[O][Pt]2([NH][C@@H]3CCCC[C@H]3[NH]2)[O]C1=O [OXA, Oxaliplatin] | 2.5 | 12.5 | 50 | 200 | –
COc1cc([C@@H]2c3cc4c(cc3[C@@H](O[C@@H]3O[C@@H]5CO[C@@H](C)O[C@H]5[C@H](O)[C@H]3O)[C@H]3COC(=O)[C@H]23)OCO4)cc(OC)c1O [etoposide] | – | – | – | – | Dissociation of single nucleosomes (single nucleosomes): has no effect
